What was measured:
[1] = test system: B-A17; assay: Planktonic growth with extract and antibiotic relative to growth without both (Example 14); assay type: cell-based
Protocol: (§1) Starting from the herbal composition, the corresponding water extracts (or processed samples) was prepared according to the previously described Method B using 2.06 g of the above herbal composition with 40 mL water with 100 g/L sucrose for water extraction and including the decantation step before filtration. In an independent water extract preparation without sucrose, it has been measured that 2.06 g/40 mL of herbal composition corresponds to 14.5 g/L as deduced from the weight of the lyophilized dry herbal extract.
(§2) In Example 14 we calculate the growth of the bacteria in presence of antibiotic and/or herbal mix relative to the growth in the absence of both antibiotic and herbal mix extract.

[2] = test system: B-A21; assay: as above; assay type: cell-based
Protocol: as §1, §2

[3] = M[20C]-576 0 μg/mL, antibiotic 3.91 μg/mL
[4] = M[20C]-576 0 μg/mL, antibiotic 7.81 μg/mL
[5] = M[20C]-576 0 μg/mL, antibiotic 15.63 μg/mL
[6] = M[20C]-576 0 μg/mL, antibiotic 31.25 μg/mL
[7] = M[20C]-576 0 μg/mL, antibiotic 62.50 μg/mL
[8] = M[20C]-576 0 μg/mL, antibiotic 125 μg/mL
[9] = M[20C]-576 0 μg/mL, antibiotic 250 μg/mL
[10] = M[20C]-576 0 μg/mL, antibiotic 500 μg/mL
[11] = M[20C]-576 0 μg/mL, antibiotic 1000 μg/mL
[12] = M[20C]-576 0 μg/mL, antibiotic 2000 μg/mL
[13] = M[20C]-576 0 μg/mL, antibiotic 4000 μg/mL
[14] = M[20C]-576 90.6 μg/mL, antibiotic 3.91 μg/mL
[15] = M[20C]-576 90.6 μg/mL, antibiotic 7.81 μg/mL
[16] = M[20C]-576 90.6 μg/mL, antibiotic 15.63 μg/mL
[17] = M[20C]-576 90.6 μg/mL, antibiotic 31.25 μg/mL
[18] = M[20C]-576 90.6 μg/mL, antibiotic 62.50 μg/mL
[19] = M[20C]-576 90.6 μg/mL, antibiotic 125 μg/mL
[20] = M[20C]-576 90.6 μg/mL, antibiotic 250 μg/mL
[21] = M[20C]-576 90.6 μg/mL, antibiotic 500 μg/mL
[22] = M[20C]-576 90.6 μg/mL, antibiotic 1000 μg/mL
[23] = M[20C]-576 90.6 μg/mL, antibiotic 2000 μg/mL
[24] = M[20C]-576 90.6 μg/mL, antibiotic 4000 μg/mL
[25] = M[20C]-576 181.3 μg/mL, antibiotic 3.91 μg/mL
[26] = M[20C]-576 181.3 μg/mL, antibiotic 7.81 μg/mL
[27] = M[20C]-576 181.3 μg/mL, antibiotic 15.63 μg/mL
[28] = M[20C]-576 181.3 μg/mL, antibiotic 31.25 μg/mL
[29] = M[20C]-576 181.3 μg/mL, antibiotic 62.50 μg/mL
[30] = M[20C]-576 181.3 μg/mL, antibiotic 125 μg/mL
[31] = M[20C]-576 181.3 μg/mL, antibiotic 250 μg/mL
[32] = M[20C]-576 181.3 μg/mL, antibiotic 500 μg/mL
[33] = M[20C]-576 181.3 μg/mL, antibiotic 1000 μg/mL
[34] = M[20C]-576 181.3 μg/mL, antibiotic 2000 μg/mL
[35] = M[20C]-576 181.3 μg/mL, antibiotic 4000 μg/mL

Question: With `CC1(C)S[C@@H]2[C@H](NC(=O)[C@H](N)c3ccccc3)C(=O)N2[C@H]1C(=O)O` [Ampicillin] as the compound, how does the “planktonic growth relative to the growth in the absence of both extract and antibiotic” value (from here on “planktonic growth relative to the growth”) [1, 3] read?
Answer: 176%

Question: What about the “planktonic growth relative to the growth” value [1, 4] of the same compound?
Answer: 176%

Question: And the “planktonic growth relative to the growth” value [1, 5]?
Answer: 148%

Question: What about the “planktonic growth relative to the growth” value [1, 6] of the same compound?
Answer: 131%

Question: And the “planktonic growth relative to the growth” value [1, 7]?
Answer: 112%

Question: What about the “planktonic growth relative to the growth” value [1, 8] of the same compound?
Answer: 2%

Question: What about the “planktonic growth relative to the growth” value [1, 9] of the same compound?
Answer: 0%

Question: And the “planktonic growth relative to the growth” value [1, 10]?
Answer: 0%

Question: And the “planktonic growth relative to the growth” value [1, 11]?
Answer: 0%

Question: What about the “planktonic growth relative to the growth” value [1, 12] of the same compound?
Answer: 0%

Question: And the “planktonic growth relative to the growth” value [1, 13]?
Answer: −1%

Question: What about the “planktonic growth relative to the growth” value [1, 14] of the same compound?
Answer: 64%

Question: And the “planktonic growth relative to the growth” value [1, 15]?
Answer: 76%

Question: And the “planktonic growth relative to the growth” value [1, 16]?
Answer: 75%

Question: What about the “planktonic growth relative to the growth” value [1, 17] of the same compound?
Answer: 58%

Question: What about the “planktonic growth relative to the growth” value [1, 18] of the same compound?
Answer: 18%

Question: What about the “planktonic growth relative to the growth” value [1, 19] of the same compound?
Answer: 1%

Question: What about the “planktonic growth relative to the growth” value [1, 20] of the same compound?
Answer: 0%

Question: What about the “planktonic growth relative to the growth” value [1, 21] of the same compound?
Answer: 0%

Question: What about the “planktonic growth relative to the growth” value [1, 22] of the same compound?
Answer: 0%

Question: And the “planktonic growth relative to the growth” value [1, 23]?
Answer: 0%

Question: What about the “planktonic growth relative to the growth” value [1, 24] of the same compound?
Answer: 0%

Question: What about the “planktonic growth relative to the growth” value [1, 25] of the same compound?
Answer: 52%

Question: What about the “planktonic growth relative to the growth” value [1, 26] of the same compound?
Answer: 53%

Question: And the “planktonic growth relative to the growth” value [1, 27]?
Answer: 52%

Question: And the “planktonic growth relative to the growth” value [1, 28]?
Answer: 31%

Question: And the “planktonic growth relative to the growth” value [1, 29]?
Answer: 7%

Question: And the “planktonic growth relative to the growth” value [1, 30]?
Answer: −4%

Question: What about the “planktonic growth relative to the growth” value [1, 31] of the same compound?
Answer: −4%

Question: What about the “planktonic growth relative to the growth” value [1, 32] of the same compound?
Answer: −4%

Question: What about the “planktonic growth relative to the growth” value [1, 33] of the same compound?
Answer: −4%

Question: And the “planktonic growth relative to the growth” value [1, 34]?
Answer: −5%

Question: And the “planktonic growth relative to the growth” value [1, 35]?
Answer: −1%

Question: And the “planktonic growth relative to the growth” value [2, 3]?
Answer: 153%

Question: And the “planktonic growth relative to the growth” value [2, 4]?
Answer: 132%

Question: And the “planktonic growth relative to the growth” value [2, 5]?
Answer: 131%

Question: And the “planktonic growth relative to the growth” value [2, 6]?
Answer: 132%

Question: And the “planktonic growth relative to the growth” value [2, 7]?
Answer: 116%

Question: What about the “planktonic growth relative to the growth” value [2, 8] of the same compound?
Answer: 150%

Question: And the “planktonic growth relative to the growth” value [2, 9]?
Answer: 113%

Question: What about the “planktonic growth relative to the growth” value [2, 10] of the same compound?
Answer: 112%

Question: And the “planktonic growth relative to the growth” value [2, 11]?
Answer: 106%

Question: And the “planktonic growth relative to the growth” value [2, 12]?
Answer: −1%

Question: What about the “planktonic growth relative to the growth” value [2, 13] of the same compound?
Answer: 0%

Question: What about the “planktonic growth relative to the growth” value [2, 14] of the same compound?
Answer: 108%

Question: What about the “planktonic growth relative to the growth” value [2, 15] of the same compound?
Answer: 83%

Question: What about the “planktonic growth relative to the growth” value [2, 16] of the same compound?
Answer: 82%

Question: What about the “planktonic growth relative to the growth” value [2, 17] of the same compound?
Answer: 82%

Question: What about the “planktonic growth relative to the growth” value [2, 18] of the same compound?
Answer: 74%

Question: And the “planktonic growth relative to the growth” value [2, 19]?
Answer: 83%

Question: And the “planktonic growth relative to the growth” value [2, 20]?
Answer: 75%

Question: What about the “planktonic growth relative to the growth” value [2, 21] of the same compound?
Answer: 83%

Question: What about the “planktonic growth relative to the growth” value [2, 22] of the same compound?
Answer: 0%

Question: What about the “planktonic growth relative to the growth” value [2, 23] of the same compound?
Answer: 0%

Question: And the “planktonic growth relative to the growth” value [2, 24]?
Answer: 0%

Question: What about the “planktonic growth relative to the growth” value [2, 25] of the same compound?
Answer: 44%

Question: What about the “planktonic growth relative to the growth” value [2, 26] of the same compound?
Answer: 63%

Question: And the “planktonic growth relative to the growth” value [2, 27]?
Answer: 70%

Question: And the “planktonic growth relative to the growth” value [2, 28]?
Answer: 69%

Question: And the “planktonic growth relative to the growth” value [2, 29]?
Answer: 70%

Question: And the “planktonic growth relative to the growth” value [2, 30]?
Answer: 62%

Question: And the “planktonic growth relative to the growth” value [2, 31]?
Answer: 62%

Question: And the “planktonic growth relative to the growth” value [2, 32]?
Answer: 61%

Question: And the “planktonic growth relative to the growth” value [2, 33]?
Answer: −2%

Question: What about the “planktonic growth relative to the growth” value [2, 34] of the same compound?
Answer: −3%

Question: And the “planktonic growth relative to the growth” value [2, 35]?
Answer: −2%
